# Source: US20090042240A1, “RAPID DETECTION OF ANTIMICROBIAL DRUG RESIDUES” (priority 2006, published 2009)
# Key:
# Escherichia coli = details: additional study 1997; microorganism frozen in skimmed milk, cells washed with saline; cited from earlier work
# [1] = cited from earlier work; for Lowest official MRL: official Maximum Residue Limit, unit assumed; for MRL: MRL stated by the European Community
# [2] = system: Escherichia coli strain ATCC 11303; assay: Liquid based microbial screening test for quinolones (Example 2); format: cell-based; details: spiked demineralized water, 100 μl sample, 37° C., 4 hours and 45 minutes, colour change purple to yellow
# Protocol: In this experiment a liquid based microbial screenings test for the detection of quinolones is described. The quinolone medium used in this experiment is prepared by dissolving the following compounds in 1 liter of demineralized water: • 8.5 gram of Plate Count Broth (PCB) (Difco, cat. no: 275120); • 20 gram of NaCl (Merck, cat. no: 106404); • 0.042 gram of Bromocresol purple (Merck, cat. no: 103025). Escherichia coli strain ATCC 11303 was grown using well-known methods. The test medium was prepared by adding Escherichia coli cells to the quinolone medium to a final concentration of approximately 10^5 cells/ml. The test was prepared by addition of 250 μl of medium containing the test organism in each test ampoule. Spiked samples were prepared by adding different concentrations of the quinolones described in Table 1 to demineralized water. 100 μl of the spiked sample was added to the test ampoule, a negative control (water without quinolones) was included. The tests were incubated at 37° C. for 4 hours and 45 minutes. The tests were read at the time the test incubated with the negative control sample (water without quinolones) changed color from purple to yellow.
# [3] = system: Escherichia coli strain ATCC 11303; assay: Detection of quinolones in chicken muscle by solvent extraction, then liquid test (Example 7); format: cell-based; details: acetonitrile/acetone extraction
# Protocol: Escherichia coli strain ATCC 11303 was grown using well-known methods. The test medium was prepared by adding Escherichia coli cells to the quinolone medium to a final concentration of approximately 10^5 cells/ml. The test was prepared by addition of 250 μl of medium containing the test organism in each test ampoule. Spiked samples were prepared by adding different concentrations of the quinolones described in Table 1 to demineralized water. 100 μl of the spiked sample was added to the test ampoule, a negative control (water without quinolones) was included. The tests were incubated at 37° C. for 4 hours and 45 minutes. The tests were read at the time the test incubated with the negative control sample (water without quinolones) changed color from purple to yellow. In this experiment a mixture of acetonitrile/acetone is used to extract antimicrobial compounds out of the sample, further the experiment is executed as described in Example 2. The sample is obtained as follows: • 1. Weigh out 4 g (±0.03) of sample into a 50 ml plastic disposable centrifuge tube; • 2. Add 10 ml acetonitrile/acetone 70:30 (v/v); • 3. […] Homogenize for 30-40 seconds using an Ultra Turrax; • 5. Place in an ultrasonic bath for 5-10 minutes, then vortex mix for 30-40 seconds; • 6. Centrifuge for 10-12 minutes at 4200 G at 4° C.; • 7. […]
# Escherichia coli strains = details: Choi et al. 1999, animal tissues; cited from earlier work
# [4] = system: Escherichia coli ATCC 11303; details: milk; Escherichia coli ATCC 11303 frozen in 10% glycerol; cited from earlier work
# [5] = agar diffusion, Tsai and Kondo 2001; cited from earlier work
SMILES,sensitivity (Escherichia coli),Lowest official MRL [1],Detection level [2],concentration detected [3],detection limit (Escherichia coli strains),MRL [1],sensitivity [4],sensitivity [5]
CN1C[C@@H]2C[C@H]1CN2c1cc2c(cc1F)c(=O)c(C(=O)O)cn2C1CC1 [Danofloxacin],8 ppb,30 µg/kg,–,–,–,–,–,–
CC1CCc2cc(F)cc3c(=O)c(C(=O)O)cn1c23 (centres unmarked) [Flumequin],–,400 µg/kg,100,10 µg/kg,–,–,–,–
CN1CCN(c2cc3c(cc2F)c(=O)c(C(=O)O)cn3-c2ccc(F)cc2)CC1 [difloxacin],–,–,–,–,250 ppb,10 ppb,–,–
CCN1CCN(c2cc3c(cc2F)c(=O)c(C(=O)O)cn3C2CC2)CC1 [Enrofloxacin],6 ppb,–,–,–,50 ppb,–,2 ppb,–
O=C(O)c1cn(-c2ccc(F)cc2)c2cc(N3CCNCC3)c(F)cc2c1=O [Sarafloxacin],15 ppb,10 µg/kg,–,–,250 ppb,100 ppb,–,–
CCn1cc(C(=O)O)c(=O)c2cc3c(cc21)OCO3 [Oxolinic acid],–,100 µg/kg,–,10 µg/kg,–,–,–,200 ppb
